Earlier results as cited in US10596205B2, “Topical medicament for skin and mucosal injuries” (REV PHARMA Corp., priority 2018, dated 2020).

Key:
S. Mutans biofilm = conditions: for Biofilm biomass / Acidogenicity of the biofilm (pH drops): 10% sucrose then free fatty acid; for Acidogenicity of the biofilm (pH drops): compared with biofilms exposed to only 10% sucrose; for Enamel demineralization induced by sucrose: biofilms treated with the fatty acids
biofilm = conditions: animals, diet rich in the fatty acids
[1] = test system: Gram-positive microorganisms; conditions: in vitro study

Compound	Biofilm biomass (S. Mutans biofilm)	Acidogenicity of the biofilm (pH drops) (S. Mutans biofilm)	Enamel demineralization induced by sucrose (S. Mutans biofilm)	Quantity of bacteria in biofilm (biofilm)	Bacteriostatic effect [1]
CCCCC/C=C\C/C=C\CCCCCCCC(=O)O [linoleic, linoleic acid]	decline in biomass	lower pH drops	significantly lower reduction	lower quantity of bacteria	–
CCCCCCCCCCCC(=O)O [Lauric acid]	–	–	–	lower quantity of bacteria	highly bacteriostatic
CCCCCCCC/C=C\CCCCCCCC(=O)O [oleic, oleic acid]	decline in biomass	lower pH drops	significantly lower reduction	–	–
